Data published in ChEMBL document CHEMBL4229545, “Oximes short-acting CB1 receptor agonists” (Bioorg Med Chem, 2018).
The source made the active and inactive calls. The rule behind the calls is not given here.

Assays:
[1] = molecular target: T1, Cannabinoid receptor 1 (Rattus norvegicus, UniProt P20272); assay: Displacement of [3H]CP-55,940 from rat brain Cb1 receptor
[2] = molecular target: T2, Cannabinoid receptor 2 (Homo sapiens, UniProt P34972); assay: Displacement of [3H]CP-55,940 from recombinant human Cb2 receptor expressed in HEK293 cells; type: cell-based
[3] = molecular target: Cannabinoid receptor 2 (Mus musculus, UniProt P47936); assay: Displacement of [3H]CP-55,940 from recombinant mouse Cb2 receptor expressed in HEK293 cells; type: cell-based
[4] = molecular target: T1, Cannabinoid receptor 1; assay: Agonist activity at recombinant rat Cb1 receptor expressed in HEK293 cells assessed as inhibition of forskolin-stimulated cAMP levels; type: functional, cell-based
[5] = molecular target: T2, Cannabinoid receptor 2; assay: Agonist activity at recombinant human Cb2 receptor expressed in HEK293 cells assessed as inhibition of forskolin-stimulated cAMP levels; type: functional, cell-based
[6] = molecular target: Cannabinoid receptor 1 (Rattus norvegicus) (UniProt P20272); assay: Agonist activity at recombinant rat Cb1 receptor expressed in HEK293 cells assessed as inhibition of forskolin-stimulated cAMP levels relative to control; type: functional, cell-based
[7] = molecular target: T2, Cannabinoid receptor 2; assay: Agonist activity at recombinant human Cb2 receptor expressed in HEK293 cells assessed as inhibition of forskolin-stimulated cAMP levels relative to CP-55940; type: functional, cell-based
[8] = AUC in CD1 mouse plasma at 10 mg/kg, po; type: ADME, organism-based
[9] = molecular target: Cannabinoid receptor 1 (Rattus norvegicus) (UniProt P20272); assay: Displacement of [3H]CP-55,940 from rat brain Cb1 receptor expressed in HEK293 cells at 10 times Ki measured after 1 hr relative to control; type: cell-based
[10] = molecular target: Cannabinoid receptor 1 (Rattus norvegicus) (UniProt P20272); assay: Displacement of [3H]CP-55,940 from rat brain Cb1 receptor expressed in HEK293 cells at 10 times Ki incubated for 1 hr followed by 5 times membrane washout; type: cell-based
[11] = Half life in human plasma; type: ADME, cell-free
[12] = Half life in rat plasma; type: ADME, cell-free
[13] = Half life in mouse plasma; type: ADME, cell-free
[14] = Half life in human liver microsomes; type: ADME, microsome
[15] = Half life in rat liver microsomes; type: ADME, microsome
[16] = Half life in mouse liver microsomes; type: ADME, microsome
[17] = Half life in simulated gastric fluid; type: ADME
[18] = Volume of distribution in CD1 mouse at 2 mg/kg, iv; type: ADME, organism-based; conditions: in vivo
[19] = test system: Mus musculus; assay: Volume of distribution in CD1 mouse at 10 mg/kg, po; type: ADME, organism-based; conditions: in vivo
[20] = AUC in CD1 mouse at 2 mg/kg, iv; type: ADME, organism-based; conditions: in vivo
[21] = AUC in CD1 mouse at 10 mg/kg, po; type: ADME, organism-based; conditions: in vivo
[22] = Half life in CD1 mouse at 2 mg/kg, iv; type: ADME, organism-based; conditions: in vivo
[23] = Half life in CD1 mouse at 10 mg/kg, po; type: ADME, organism-based; conditions: in vivo
[24] = Tmax in CD1 mouse at 10 mg/kg, po; type: ADME, organism-based; conditions: in vivo
[25] = AUC in CD1 mouse plasma at 2 mg/kg, iv; type: ADME, organism-based
[26] = AUC in CD1 mouse brain at 2 mg/kg, iv; type: ADME, organism-based
[27] = AUC in CD1 mouse spleen at 2 mg/kg, iv; type: ADME, organism-based
[28] = AUC in CD1 mouse kidney at 2 mg/kg, iv; type: ADME, organism-based
[29] = AUC in CD1 mouse liver at 2 mg/kg, iv; type: ADME, organism-based
[30] = AUC in CD1 mouse fat at 2 mg/kg, iv; type: ADME, organism-based, Adipose tissue
[31] = Ratio of AUC in plasma to urine of CD1 mouse at 10 mg/kg, po; type: ADME, organism-based; conditions: in vivo
[32] = Ratio of AUC in plasma to brain of CD1 mouse at 2 mg/kg, iv; type: ADME, organism-based; conditions: in vivo
[33] = Ratio of AUC in plasma to spleen of CD1 mouse at 2 mg/kg, iv; type: ADME, organism-based; conditions: in vivo
[34] = Ratio of AUC in plasma to kidney of CD1 mouse at 2 mg/kg, iv; type: ADME, organism-based; conditions: in vivo
[35] = Ratio of AUC in plasma to liver of CD1 mouse at 2 mg/kg, iv; type: ADME, organism-based; conditions: in vivo
[36] = Ratio of AUC in plasma to fat of CD1 mouse at 2 mg/kg, iv; type: ADME, organism-based, Adipose tissue/Plasma; conditions: in vivo
[37] = AUC in CD1 mouse brain at 10 mg/kg, po; type: ADME, organism-based
[38] = AUC in CD1 mouse spleen at 10 mg/kg, po; type: ADME, organism-based
[39] = AUC in CD1 mouse kidney at 10 mg/kg, po; type: ADME, organism-based
[40] = AUC in CD1 mouse liver at 10 mg/kg, po; type: ADME, organism-based
[41] = AUC in CD1 mouse fat at 10 mg/kg, po; type: ADME, organism-based, Adipose tissue
[42] = AUC in CD1 mouse urine at 10 mg/kg, po; type: ADME, organism-based
[43] = Ratio of AUC in plasma to brain of CD1 mouse at 10 mg/kg, po; type: ADME, organism-based; conditions: in vivo
[44] = Ratio of AUC in plasma to spleen of CD1 mouse at 10 mg/kg, po; type: ADME, organism-based; conditions: in vivo
[45] = Ratio of AUC in plasma to kidney of CD1 mouse at 10 mg/kg, po; type: ADME, organism-based; conditions: in vivo
[46] = Ratio of AUC in plasma to liver of CD1 mouse at 10 mg/kg, po; type: ADME, organism-based; conditions: in vivo
[47] = Ratio of AUC in plasma to fat of CD1 mouse at 10 mg/kg, po; type: ADME, organism-based, Adipose tissue/Plasma; conditions: in vivo
[48] = test system: Rattus norvegicus; assay: Induction of hypothermia in Sprague-Dawley rat assessed as decrease in body temperature at 1 to 10 mg/kg, ip measured after 180 to 360 mins; type: functional, organism-based
[49] = test system: Rattus norvegicus; assay: Induction of hypothermia in Sprague-Dawley rat assessed as decrease in body temperature at 1 mg/kg, ip measured after 3 to 6 hrs; type: functional, organism-based
[50] = test system: Rattus norvegicus; assay: Induction of hypothermia in Sprague-Dawley rat assessed as decrease in body temperature at 1 mg/kg, ip measured after 24 hrs; type: functional, organism-based
[51] = test system: Mus musculus; assay: Analgesic activity in ip dosed CD1 mouse model of thermal-induced nociception assessed as tail withdrawal latency measured after 20 mins by tail flick test; type: functional
[52] = test system: Mus musculus; assay: Analgesic activity in CD1 mouse model of thermal-induced nociception assessed as tail withdrawal latency at 1 mg/kg, ip measured after 180 to 360 mins by tail flick test; type: functional, organism-based
[53] = organism: Rattus norvegicus; conditions: Sprague-Dawley
Description: Induction of hypothermia in ip dosed Sprague-Dawley rat assessed as decrease in body temperature measured up to 180 mins

Cannabinoid receptor 2 (Mus musculus, UniProt P47936), sequence (P47936 whole entry): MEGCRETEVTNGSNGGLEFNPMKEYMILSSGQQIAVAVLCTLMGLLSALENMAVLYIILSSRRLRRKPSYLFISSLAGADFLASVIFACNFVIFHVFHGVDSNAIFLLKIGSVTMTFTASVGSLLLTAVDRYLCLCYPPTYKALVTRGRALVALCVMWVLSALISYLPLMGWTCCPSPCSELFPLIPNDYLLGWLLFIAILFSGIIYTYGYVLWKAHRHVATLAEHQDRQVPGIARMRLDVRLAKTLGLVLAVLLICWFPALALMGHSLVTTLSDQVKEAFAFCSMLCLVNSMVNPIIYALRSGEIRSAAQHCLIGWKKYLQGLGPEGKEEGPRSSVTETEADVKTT
Cannabinoid receptor 1 (Rattus norvegicus), sequence (P20272 whole entry): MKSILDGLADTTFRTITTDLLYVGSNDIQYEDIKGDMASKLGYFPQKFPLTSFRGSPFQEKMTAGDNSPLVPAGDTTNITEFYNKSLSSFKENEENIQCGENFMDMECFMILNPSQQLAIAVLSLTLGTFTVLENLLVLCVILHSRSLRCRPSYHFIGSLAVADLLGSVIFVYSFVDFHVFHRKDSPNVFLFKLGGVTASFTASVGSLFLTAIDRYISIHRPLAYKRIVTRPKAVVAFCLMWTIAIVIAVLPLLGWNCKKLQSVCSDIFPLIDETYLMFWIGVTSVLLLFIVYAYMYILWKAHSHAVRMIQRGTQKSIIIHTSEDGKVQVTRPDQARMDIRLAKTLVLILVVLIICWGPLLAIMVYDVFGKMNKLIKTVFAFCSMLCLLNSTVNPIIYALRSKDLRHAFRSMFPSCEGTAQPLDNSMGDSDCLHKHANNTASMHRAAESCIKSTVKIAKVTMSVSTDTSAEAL
T1 sequence (P20272 whole entry): as above
T2 sequence (P34972 whole entry): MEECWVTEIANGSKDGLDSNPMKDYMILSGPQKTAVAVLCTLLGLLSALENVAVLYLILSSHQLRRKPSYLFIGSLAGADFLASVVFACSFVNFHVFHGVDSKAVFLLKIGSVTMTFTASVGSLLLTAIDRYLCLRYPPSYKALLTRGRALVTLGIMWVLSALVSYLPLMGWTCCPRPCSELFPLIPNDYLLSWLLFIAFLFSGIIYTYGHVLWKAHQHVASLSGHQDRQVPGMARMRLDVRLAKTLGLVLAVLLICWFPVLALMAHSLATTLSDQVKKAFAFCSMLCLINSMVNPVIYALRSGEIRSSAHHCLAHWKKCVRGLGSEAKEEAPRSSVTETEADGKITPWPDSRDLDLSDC

SMILES: CCCCO/N=C(\C)c1cc(O)c2c(c1)OC(C)(C)[C@H]1CC=C(C)C[C@H]21
- Ki [1]: 3.4 nM
- Ki [2]: 16.9 nM
- Ki [3]: 1.6 nM
- EC50 ([4]; read-out: EC50): 0.58 nM
- EC50 ([5]; read-out: EC50): 9.14 nM
- Emax [6]: 51%
- Emax [7]: 116%

SMILES: CCCC(C)O/N=C(/C)c1cc(O)c2c(c1)OC(C)(C)[C@H]1CC=C(C)C[C@H]21 (mixture of isomers)
- Ki [1]: 0.5 nM
- Ki [2]: 6.1 nM
- Ki [3]: 1.9 nM
- EC50 ([4]; hek293): Not Active
- EC50 ([5]; read-out: EC50): 11.5 nM
- Emax [7]: 260%

SMILES: CC1=CC[C@H]2[C@H](C1)c1c(O)cc(/C(C)=N/OCCN3CCCC3)cc1OC2(C)C
- Ki [1]: 6.6 nM
- Ki [2]: 8.4 nM
- Ki [3]: 6.7 nM

SMILES: CC1=CC[C@H]2[C@H](C1)c1c(O)cc(/C(C)=N/OCCN3CCCCC3)cc1OC2(C)C
- Ki [1]: 5.6 nM
- Ki [2]: 2.5 nM
- Ki [3]: 4.1 nM
- EC50 ([4]; read-out: EC50): 12.7 nM
- EC50 ([5]; read-out: EC50): 65.7 nM
- Emax [6]: 31%
- Emax [7]: 147%

SMILES: CC1=CC[C@H]2[C@H](C1)c1c(O)cc(/C(C)=N/OCCCCF)cc1OC2(C)C
- Ki [1]: 4.1 nM
- Ki [2]: 9.7 nM
- Ki [3]: 2.5 nM
- EC50 ([4]; read-out: EC50): 0.7 nM
- EC50 ([5]; hek293): Not Active
- Emax [6]: 39%

SMILES: CCCCCCC(C)(C)c1ccc([C@@H]2C[C@H](O)CC[C@H]2CCCO)c(O)c1
- Emax [6]: 70 to 85%
- Emax [7]: 70 to 85%

SMILES: CC1=CC[C@H]2[C@H](C1)c1c(O)cc(/C(C)=N\OCCCC#N)cc1OC2(C)C
- Ki [1]: 0.3 nM
- Ki [2]: 0.4 nM
- Ki [3]: 0.1 nM
- EC50 ([4]; hek293): Not Active
- EC50 ([5]; read-out: EC50): 2 nM
- Emax [7]: 35%

SMILES: CC1=CC[C@H]2[C@H](C1)c1c(O)cc(/C(C)=N/OCCCC#N)cc1OC2(C)C
- AUC [8]: 124 ng·h/mL
- Ki [1]: 0.9 nM
- Ki [2]: 1.3 nM
- Ki [3]: 2.6 nM
- EC50 ([4]; read-out: EC50): 4.4 nM
- EC50 ([5]; read-out: EC50): 12 nM
- Emax [6]: 51%
- Emax [7]: 47%
- inhibition [9]: 44%
- inhibition [10]: 23%
- half-life [11]: > 60 min
- half-life [12]: > 60 min
- half-life [13]: > 60 min
- half-life [14]: 9 min
- half-life [15]: 12 min
- half-life [16]: 13 min
- half-life [17]: > 60 min
- Vd [18]: 2.16 L/kg
- Vd [19]: 68.042 L/kg
- AUC [20]: 1060 ng·h/mL
- AUC [21]: 1240 ng·h/mL
- half-life [22]: 47.3 min
- half-life [23]: 35.2 min
- Tmax [24]: 60 min
- AUC [25]: 900 ng·h/mL
- AUC [26]: 443 ng·h/mL
- AUC [27]: 957 ng·h/mL
- AUC [28]: 890 ng·h/mL
- AUC [29]: 580 ng·h/mL
- AUC [30]: 5390 ng·h/mL
- Ratio AUC [31]: 0.09
- Ratio AUC [32]: 0.49
- Ratio AUC [33]: 1.06
- Ratio AUC [34]: 0.99
- Ratio AUC [35]: 0.64
- Ratio AUC [36]: 5.98
- AUC [37]: 154 ng·h/mL
- AUC [38]: 107 ng·h/mL
- AUC [39]: 257 ng·h/mL
- AUC [40]: 308 ng·h/mL
- AUC [41]: 710 ng·h/mL
- AUC [42]: 11.3 ng·h/mL
- Ratio AUC [43]: 1.24
- Ratio AUC [44]: 0.86
- Ratio AUC [45]: 2.06
- Ratio AUC [46]: 2.48
- Ratio AUC [47]: 5.72
- Activity [48]: inactive
- Activity [49]: Active
- Activity [50]: inactive
- Activity [51]: Dose-dependent effect
- ED50 [51]: 1.42 mg/kg
- Activity [52]: Active
- deltaT [53]: 4.5 to 7.7 °C

SMILES: CCCCCc1cc(O)c2c(c1)OC(C)(C)[C@H]1CC=C(C)C[C@H]21
- Ki [3]: 40.4 nM
